In patent US8551999B2, “Heterocyclic compound and pharmaceutical composition thereof” (Otsuka Pharmaceutical Co., Ltd., priority 2007, dated 2013):
Structures can show the parent of a compound that is named as a salt.

What was measured:
[1] = tested on: Human hepatic cancer cells (HuH-7); experiment: Antitumor effect on hepatic cancer cells, HuH-7 (in vivo); settings: SCID mice bearing HuH-7 tumor, 10 mg/kg/day orally, once daily, 9 consecutive days; ratio of relative tumor volume treatment/control
Description: Human hepatic cancer cells (HuH-7) were transplanted in SCID mice (6 females/group) and the inhibitory effect of the invention on their growth was examined. In the study, 0.2 mL of a cell suspension adjusted to contain 2.5×10^7 cells/mL was injected subcutaneously in the right axilla to prepare tumor bearing mice. When the tumor diameter became 5 mm or more, the animals were allocated to groups based on the tumor volume. The test compound was administered orally as a suspension in 5% gum arabic, once daily, for 9 consecutive days. The control group received 5% gum arabic. Tumor volumes were measured on the following day of the last administration. The relative tumor volume was determined by calculating the ratio of the tumor volume on the following day of the last administration to that at group allocation. The ratio of the relative tumor volume in the treatment group to that in the control group (T/C %) was calculated as the index for the effect. Relative tumor volume=Tumor volume on the following day of the last administration/Tumor volume at group allocation. T/C %=(Mean relative tumor volume in the treatment group/Mean relative tumor volume in the control group)×100.

[2] = tested on: STAT3; experiment: Inhibitory effect on IL-6-induced STAT3 phosphorylation in human myeloma cells (in vitro); assay type: cell-based; settings: U266B1 human myeloma cells, IL-6 1 ng/mL, pSTAT3 (Y705) by flow cytometry
Description: The inhibitory effect of the test compound on phosphorylation of STAT3 (signal transducer and activator of transcription-3) in human myeloma cells ([…]) induced by interleukin-6 (IL-6) was examined using the modified method of Tochizawa S. et al. (J Immunol Methods. 2006 Jun. 30; 313(1-2): 29-37). In the study, U266B1 cells were seeded in an RPMI 1640 medium containing 10% fetal bovine serum (FBS) in a 12-well plate and incubated at 37° C. for 2 hours in the presence of carbon dioxide. After incubation, IL-6 was added to yield the concentration of 1 ng/mL and the cells were incubated at 37° C. for 15 minutes in the presence of 5% carbon dioxide. After fixation of the cells by the addition of a buffer containing formaldehyde (Lyse/Fix Buffer, BD Biosciences) at room temperature for 10 minutes, the suspension was centrifuged to remove the supernatant and the cells were treated with ice-cold methanol for 10 minutes to improve the permeability of the cell membrane. The cells were centrifuged to remove methanol and washed twice with Dulbecco's phosphate buffered saline (D-PBS) containing 2% fetal bovine serum (FBS). A fluorescence-labeled anti-phosphorylated STAT3 (pSTAT3) antibody (Alexa Fluor 488-labeled anti-pSTAT3 (Y705) antibody, BD Biosciences) was added for staining in an ice bath for 30 minutes.
The cells were washed once with 2% FBS-containing D-PBS and suspended in 2% FBS-containing D-PBS, and the fluorescence intensity was determined using a flow cytometer (FACS Sort, BD Biosciences). The ratio of fluorescence intensity in the test group to the control group (T/C) was determined from the difference in the geometric mean of pSTAT3 fluorescence intensity between the test compound group of each concentration and the non-stimulated control group according to the following equation by defining the difference in the geometric mean of pSTAT3 fluorescence intensity between the IL-6 induced control and the non-stimulated control as 100%. T/C(%)=([…] of pSTAT3 fluorescence intensity in the cells treated with the test compound—geometric mean of pSTAT3 fluorescence intensity in non-stimulated control)/(geometric mean of fluorescence intensity of IL-6-induced pSTAT3 in the control−geometric mean of pSTAT3 fluorescence intensity in non-stimulated control)×100.
The concentration of the test compound inhibiting phosphorylation of STATS at 50% (IC50; concentration of the test compound corresponding to 50% T/C(%)) was determined using T/C(%) values at the respective concentrations and defined as the index for the inhibitory activity.

[3] = tested on: LI90 cells, a human hepatic stellate cell line; experiment: Inhibitory effect on collagen synthesis (in vitro); assay type: cell-based; settings: in the presence of recombinant human TGF-β1, 3H-proline labelled collagen in supernatant
Description: Inhibitory Effect on Collagen Synthesis (In Vitro)
LI90 cells, a human hepatic stellate cell line, were suspended in DMEM (Dulbecco's modified eagle medium) supplemented with 10% inactivated FBS (fetal bovine serum), seeded on a 12-well plate and cultured in a CO2 incubator (preset temperature: 37° C., preset CO2 concentration: 5%). After being cultured for 24 hours, the cells were washed with D-PBS (Dulbecco's phosphate buffered saline), placed in MEM (Eagle's minimum essential medium) supplemented with 0.1% inactivated FBS and then cultured in a CO2 incubator. After being cultured for 3 days, the cells were again washed with D-PBS, placed in MEM (Eagle's minimum essential medium) supplemented with 0.1% inactivated FBS and treated with or without a test compound in the presence of […] recombinant human TGF-β1 (transforming growth factor-β1) in a CO2 incubator for 16 hours. After the incubation, the cells were washed with D-PBS and the medium was replaced with MEM containing 0.25 mM ascorbate. A radio-labeled compound, ^3H-proline, was then added to the culture medium to radio-label the collagen proteins produced. After being cultured for 24 hours, the supernatant was collected and the collagen proteins were extracted from the supernatant as acid-soluble fractions. The amount of collagen produced was determined by measuring the radioactivity contained in the fractions. A concentration of test compound that produced 50% inhibition [IC50 value (nM)] on collagen synthesis was calculated by comparing the radioactivity count in a supernatant of test-compound-treated cells with that of untreated cells (control).

[4] = tested on: human hepatic cancer cells (HuH-7); experiment: Antiproliferative effect on cancer cells (in vitro), sulforhodamine B method, HuH-7; assay type: cell-based; settings: HuH-7 cells, 5 days incubation with test compound
Description: (§1) Growth inhibition of human hepatic cancer cells (HuH-7) was determined by the sulforhodamine B method based on the method of Skehan P. et al. (J Natl Cancer Inst. 1990 Jul. 4; 82(13): 1107-12). In the study, HuH-7 cells were seeded on DMEM medium containing 10% fetal bovine serum in a 96-well microplate. After 24-hour incubation at 37° C. in the presence of 5% carbon dioxide, the test compound was added and the cells were incubated for another 5 days. After incubation, a trichloroacetic acid solution was added to yield the final concentration of 10% and the cells were left to stand at 4° C. for 1 hour to fix. Then, the cells were washed with water to remove the medium and trichloroacetic acid and dried in the air. The dried cells were stored at 4° C. until they were stained with sulforhodamine B. To each well, 1% acetic acid solution containing 0.4% sulforhodamine B was added and left to stand for 20 to 30 minutes at room temperature. After discarding the supernatant, each well was washed with 1% acetic acid solution, and 10 mM Tris ([…]) solution was added while stirring to elute the dye taken into the cells. Then, the optical density was determined at the measurement wavelength of 492 nm and the reference wavelength of 690 nm, and the difference was calculated. The cell growth activity in each well was defined as the value determined by subtracting the OD in the control well not containing cells (the difference in absorbance between 492 nm and 690 nm) from that in the test well.
(§2) The 50% inhibitory concentration (IC50 (nM)) of the test compound was determined by comparing the cell growth activity in the well containing the test compound with that of the control not containing the test compound.

[5] = tested on: human pancreatic cancer cells (HPAC); experiment: Antiproliferative effect on cancer cells (in vitro), sulforhodamine B method, HPAC; assay type: cell-based; settings: 5 days incubation with test compound
Description: as §1, §2
The growth inhibition on human pancreatic cancer cells (HPAC) was also determined by the above method using HPAC instead of HuH-7 and RPMI 1640 medium containing 10% fetal bovine serum instead of the DMEM medium containing 10% fetal bovine serum.

[6] = tested on: human chronic myelocytic leukemia cells (KU812); experiment: Antiproliferative effect on cancer cells (in vitro), WST-8 assay, KU812; assay type: cell-based; settings: 5 days incubation with test compound
Description: The growth inhibition on human chronic myelocytic leukemia cells (KU812) was determined by a WST-8 assay according to the method of Singh A K, et al. (Cancer Lett. 1996 Oct. 1; 107(1): 109-15.). In this method, KU812 cells were seeded in RPMI 1640 medium containing 10% fetal bovine serum in a 96-well microplate and incubated at 37° C. for 24 hours in the presence of 5% carbon dioxide. Then, the test compound was added and the cells were incubated for another 5 days. After incubation, 15 μL of 5 mM WST-8 (2-(2-methoxy-4-nitrophenyl)-3-(4-nitrophenyl)-5-(2,4-disulfenyl)-2H-tetrazolium, monosodium salt) was added and the cells were incubated for 2 hours. After the 2-hour incubation, 15 μL of 1% SDS (sodium dodecyl sulfate) was added and the optical density was determined at the measurement wavelength of 450 nm and the reference wavelength of 630 nm, and the difference was calculated. The cell growth activity in each well was defined as the value determined by subtracting the OD in the control well not containing cells (the difference in absorbance between 492 nm and 690 nm) from that in the test well.
as §2

Br.CN(C(=O)c1ccc(C(F)(F)F)cc1)c1ccc(Oc2ccc3cc(C(=O)N4CCN(Cc5ccc(OC(CF)CF)cc5)CC4)n(C)c3c2)nc1 [Example 445, N-[6-(2-{4-[4-(2-Fluoro-1-fluoromethylethoxy)benzyl]piperazine-1-carbonyl}-1-methyl-1H-indol-6-yloxy)pyridin-3-yl]-N-methyl-4-tri-fluoromethylbenzamide hydrobromide]
T/C % [1]: <50% | IC50 [2]: < 0.01 µM | melting point: 230.8 to 231.4 °C

Cc1cc(C(F)(F)F)ccc1C(=O)Nc1ccc(Oc2ccc3cc(C(=O)N4CCN(Cc5ccc(OC(CF)CF)cc5)CC4)n(C)c3c2)nc1.Cl [Example 493, N-[6-(2-{4-[4-(2-Fluoro-1-fluoromethylethoxy)benzyl]piperazine-1-carbonyl}-1-methyl-1H-indol-6-yloxy)pyridin-3-yl]-2-methyl-4-tri-fluoromethylbenzamide hydrochloride]
T/C % [1]: <50% | IC50 [2]: < 0.01 µM | melting point: 192.5 to 195.4 °C

Br.CC(C)Oc1ccc(CN2CCN(C(=O)c3cc4ccc(Oc5ccc(NC(=O)c6ccc(C(F)(F)F)cc6Cl)cn5)cc4n3C)CC2)cc1 [Example 253, 2-Chloro-N-(6-{2-[4-(4-isopropoxybenzyl)piperazine-1-carbonyl]-1-methyl-1H-indol-6-yloxy}pyridin-3-yl)-4-trifluoromethylbenzamide hydrobromide]
IC50 [3]: < 0.01 µM | IC50 ([4]; Homo sapiens, 120 h): < 0.01 µM | IC50 ([5]; Homo sapiens, 120 h): < 0.07 µM | IC50 ([6]; Homo sapiens, 120 h): < 0.002 µM | melting point: 237.2 to 238.2 °C

CC(C)Oc1ccc(CN2CCN(C(=O)c3cc4cc(Oc5ccc(N(C)C(=O)c6ccc(C(F)(F)F)cc6)cn5)ccc4n3C)CC2)cn1.O=C(O)/C=C\C(=O)O [Example 424, N-(6-{2-[4-(6-Isopropoxypyridin-3-ylmethyl)piperazine-1-carbonyl]-1-methyl-1H-indol-5-yloxy}pyridin-3-yl)-N-methyl-4-tri-fluoromethylbenzamide maleate]
IC50 [3]: < 0.01 µM | IC50 ([4]; Homo sapiens, 120 h): < 0.01 µM | IC50 ([5]; Homo sapiens, 120 h): < 0.07 µM | IC50 ([6]; Homo sapiens, 120 h): < 0.002 µM | melting point: 157 to 159 °C

COc1ccc(CN2CCN(C(=O)c3cc4cc(Oc5ccc(N(C)C(=O)c6ccc(C(F)(F)F)cc6)cn5)ccc4n3C)CC2)cc1 [Example 338, N-(6-{2-[4-(4-Methoxybenzyl)piperazine-1-carbonyl]-1-methyl-1H-indol-5-yloxy}pyridin-3-yl)-N-methyl-4-trifluoromethylbenzamide maleate]
IC50 ([4]; Homo sapiens, 120 h): < 0.01 µM | IC50 ([5]; Homo sapiens, 120 h): < 0.07 µM | IC50 ([6]; Homo sapiens, 120 h): < 0.002 µM | IC50 [2]: < 0.01 µM

Br.CN(C(=O)c1ccc(OC(F)(F)F)cc1)c1ccc(Oc2ccc3cc(C(=O)N4CCN(Cc5ccc(OC(F)F)cc5)CC4)n(C)c3c2)nc1 [Example 473, N-(6-{2-[4-(4-Difluoromethoxybenzyl)piperazine-1-carbonyl]-1-methyl-1H-indol-6-yloxy}pyridin-3-yl)-N-methyl-4-trifluoro-methoxybenzamide hydrobromide]
IC50 [3]: < 0.01 µM | IC50 [4]: < 0.01 µM | IC50 [5]: < 0.07 µM | IC50 [6]: < 0.002 µM | T/C % [1]: <50%

CC(C)Oc1ccc(CN2CCN(C(=O)c3cc4ccc(Oc5ncc(N(C)C(=O)c6ccc(C(F)(F)F)cc6)cn5)cc4n3C)CC2)cc1.Cl [Example 521, N-(2-{2-[4-(4-Isopropoxybenzyl)piperazine-1-carbonyl]-1-methyl-1H-indol-6-yloxy}pyrimidin-5-yl)-N-methyl-4-trifluoromethyl-benzamide hydrochloride]
IC50 ([4]; Homo sapiens, 120 h): < 0.01 µM | IC50 ([5]; Homo sapiens, 120 h): < 0.07 µM | IC50 ([6]; Homo sapiens, 120 h): < 0.002 µM | T/C % [1]: <50%

Br.CN(C(=O)c1ccc(C(F)(F)F)cc1)c1ccc(Oc2ccc3cc(C(=O)N4CCN(Cc5ccc(OCC(F)(F)F)cc5)CC4)n(C)c3c2)nc1 [Example 436, N-Methyl-N-[6-(1-methyl-2-{4-[4-(2,2,2-trifluoroethoxy)benzyl]-piperazine-1-carbonyl}-1H-indol-6-yloxy)pyridin-3-yl]-4-tri-fluoromethylbenzamide hydrobromide]
IC50 [3]: < 0.01 µM | IC50 ([4]; Homo sapiens, 120 h): < 0.01 µM | IC50 ([5]; Homo sapiens, 120 h): < 0.07 µM | IC50 ([6]; Homo sapiens, 120 h): < 0.002 µM | IC50 [2]: < 0.01 µM | melting point: 225 to 226.4 °C
